Data from US9296745B2, “Diacylglycerol acyltransferase 2 inhibitors” (Pfizer Inc., priority 2012, dated 2016).

The molecules below were run against Human DGAT2 (hDGAT2) (Homo sapiens (Human), UniProt Q96PD7) (assay: In vitro DGAT2 assay, IC50 determination with hDGAT2 membrane fraction). Conditions: geometric mean; background for complete inhibition of DGAT2 obtained with 50 μM (1R,2R)-2-({3′-Fluoro-4′-[(6-fluoro-1,3-benzothiazol-2-yl)amino]-1,1′-biphenyl-4-yl}carbonyl)cyclopentanecarboxylic acid; read-out: DGAT2 IC50.
Type: biochemical
Outline: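 CHAPS-solubilized membrane fraction of FLAG-tagged hDGAT2 from baculovirus-infected SF9 cells (0.01 mg/mL) in 100 mM Hepes-NaOH pH 7.4, 20 mM MgCl2, 200 nM methyl arachidonyl fluorophosphonate; compounds pre-incubated 20 min with 0.04% BSA. Reaction 40 min at room temperature, stopped with H3PO4. [^14C]tridecanoylglycerol in organic phase counted; 11-point geometric mean IC50.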

Sequence of Human DGAT2 (hDGAT2) (Q96PD7 whole entry): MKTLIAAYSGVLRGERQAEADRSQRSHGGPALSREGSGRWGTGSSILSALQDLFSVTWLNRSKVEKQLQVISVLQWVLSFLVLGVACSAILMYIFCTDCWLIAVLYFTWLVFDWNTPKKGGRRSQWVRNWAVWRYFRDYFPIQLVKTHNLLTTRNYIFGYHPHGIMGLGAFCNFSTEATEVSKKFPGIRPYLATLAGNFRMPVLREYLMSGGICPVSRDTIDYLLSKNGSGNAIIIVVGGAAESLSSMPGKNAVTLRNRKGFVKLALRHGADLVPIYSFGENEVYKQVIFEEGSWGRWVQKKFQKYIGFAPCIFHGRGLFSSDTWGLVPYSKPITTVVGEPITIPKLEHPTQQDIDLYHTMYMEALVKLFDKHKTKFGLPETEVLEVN

**Q.** How did the IC50 turn out when CC(C)(O)c1csc(-c2nc3ccc(N4CCC[C@@H](C(=O)N5CCCC5)C4)nc3[nH]2)n1 [Example 140, (R)-(1-(2-(4-(2-Hydroxypropan-2-yl)thiazol-2-yl)-3H-imidazo[4,5-b]pyridin-5-yl)piperidin-3-yl)(pyrrolidin-1-yl)methanone] was run?
**A.** 207 nM

**Q.** How did the IC50 turn out when C[C@H]1CO[C@@H](c2ccccn2)CN1c1ccc2nc(-c3cccc(Cl)c3)[nH]c2n1 [Example 177, (2R,5S)-4-(2-(3-Chlorophenyl)-3H-imidazo[4,5-b]pyridin-5-yl)-5-methyl-2-(pyridin-2-yl)morpholine] was run?
**A.** 953 nM

**Q.** How did the IC50 turn out when O=C([C@@H]1CCCN(c2ccc3nc(-c4ccnc(C5CC5)n4)[nH]c3n2)C1)N1CC(F)(F)C1 [Example 176, (R)-(1-(2-(2-Cyclopropylpyrimidin-4-yl)-3H-imidazo[4,5-b]pyridin-5-yl)piperidin-3-yl)(3,3-difluoroazetidin-1-yl)methanone] was run?
**A.** 73.4 nM

**Q.** CCOC(=O)C1(c2cccc(-c3nc4ccc(N5CCC[C@@H](C(=O)N6CCCC6)C5)nc4[nH]3)c2)CC1 [Example 124, (R)-Ethyl 1-(3-(5-(3-(pyrrolidine-1-carbonyl)piperidin-1-yl)-3H-imidazo[4,5-b]pyridin-2-yl)phenyl)cyclopropanecarboxylate] was tested. Which IC50 did it give?
**A.** 5.27 nM

**Q.** For FC(F)Oc1cccc(-c2nc3ccc(N4CCO[C@H](c5ccccn5)C4)nc3[nH]2)c1 [Example 145, (S)-4-(2-(3-(difluoromethoxy)phenyl)-3H-imidazo[4,5-b]pyridin-5-yl)-2-(pyridin-2-yl)morpholine], which IC50 is on record?
**A.** 411 nM

**Q.** Which IC50 does the source give for CCOC(=O)c1cc(OC)nc(-c2nc3ccc(N4CCC[C@@H](C(=O)N5CCCC5)C4)nc3[nH]2)c1 [Example 96, (R)-Ethyl 2-methoxy-6-(5-(3-(pyrrolidine-1-carbonyl)piperidin-1-yl)-3H-imidazo[4,5-b]pyridin-2-yl)isonicotinate] here?
**A.** 37.3 nM

**Q.** For COc1cc(C(=O)O)cc(-c2nc3ccc(N4CCC[C@@H](C(=O)N5CCCC5)C4)nc3[nH]2)n1 [Example 126, (R)-2-Methoxy-6-(5-(3-(pyrrolidine-1-carbonyl)piperidin-1-yl)-3H-imidazo[4,5-b]pyridin-2-yl)isonicotinic acid], which IC50 is on record?
**A.** 3470 nM

**Q.** With O=C([C@@H]1CCCN(c2ccc3nc(C4(c5ccon5)CC4)[nH]c3n2)C1)N1CCCC1 [Example 93, (R)-(1-(2-(1-(Isoxazol-3-yl)cyclopropyl)-3H-imidazo[4,5-b]pyridin-5-yl)piperidin-3-yl)(pyrrolidin-1-yl)methanone] as the molecule, how does the IC50 read?
**A.** 202 nM

**Q.** O=C([C@H]1CN(c2ccc3nc(-c4cccc(C(F)(F)F)n4)[nH]c3n2)CCO1)N1CCCC1 [Example 143, (R)-Pyrrolidin-1-yl(4-(2-(6-(trifluoromethyl)pyridin-2-yl)-3H-imidazo[4,5-b]pyridin-5-yl)morpholin-2-yl)methanone] was tested. Which IC50 did it give?
**A.** 511 nM

**Q.** For c1cc(-c2nc3ccc(N4CCC[C@H](c5ncc6n5CCC6)C4)nc3[nH]2)nc(C2CC2)n1 [Example 135, (S)-2-(2-cyclopropylpyrimidin-4-yl)-5-(3-(6,7-dihydro-5H-pyrrolo[1,2-c]imidazol-3-yl)piperidin-1-yl)-3H-imidazo[4,5-b]pyridine], which IC50 is on record?
**A.** 4240 nM

**Q.** Which IC50 does the source give for O=C([C@@H]1CCCN(c2ccc3nc(C4(Cc5ccccc5)COC4)[nH]c3n2)C1)N1CCCC1 [Example 85, (R)-(1-(2-(3-Benzyloxetan-3-yl)-3H-imidazo[4,5-b]pyridin-5-yl)piperidin-3-yl)(pyrrolidin-1-yl)methanone] here?
**A.** 1160 nM

**Q.** How did the IC50 turn out when CC(C)(C)c1nc2ccc(N3CCC[C@@H](C(=O)N4CCCC4)C3)nc2[nH]1 [Example 24, (R)-(1-(2-tert-Butyl-3H-imidazo[4,5-b]pyridin-5-yl)piperidin-3-yl)(pyrrolidin-1-yl)methanone] was run?
**A.** 731 nM

**Q.** O=C([C@@H]1CCCN(c2ccc3nc(C4(c5ccncc5)CC4)[nH]c3n2)C1)N1CCCC1 [Example 161, (R)-(1-(2-(1-(Pyridin-4-yl)cyclopropyl)-3H-imidazo[4,5-b]pyridin-5-yl)piperidin-3-yl)(pyrrolidin-1-yl)methanone] was tested. Which IC50 did it give?
**A.** 218 nM

**Q.** For O=C([C@@H]1CCCN(c2ccc3nc(-c4ccnc(C5CC5)n4)[nH]c3n2)C1)N1C[C@@H](F)[C@H](F)C1 [Example 68, ((R)-1-(2-(2-Cyclopropylpyrimidin-4-yl)-3H-imidazo[4,5-b]pyridin-5-yl)piperidin-3-yl)((3R,4R)-3,4-difluoropyrrolidin-1-yl)methanone], which IC50 is on record?
**A.** 54.7 nM

**Q.** With O=C([C@@H]1CCCN(c2ccc3nc(C4(c5ccc(C(F)(F)F)cc5)CC4)[nH]c3n2)C1)N1CCCC1 [Example 106, (R)-Pyrrolidin-1-yl(1-(2-(1-(4-(trifluoromethyl)phenyl)cyclopropyl)-3H-imidazo[4,5-b]pyridin-5-yl)piperidin-3-yl)methanone] as the molecule, how does the IC50 read?
**A.** 5.68 nM

**Q.** With O=C([C@@H]1CCCN(c2ccc3nc(C4(c5cccnc5)CCC4)[nH]c3n2)C1)N1CCCC1 [Example 88, (R)-(1-(2-(1-(Pyridin-3-yl)cyclobutyl)-3H-imidazo[4,5-b]pyridin-5-yl)piperidin-3-yl)(pyrrolidin-1-yl)methanone] as the molecule, how does the IC50 read?
**A.** 190 nM

**Q.** For O=C(Nc1ccc(C(F)(F)F)nc1)c1nc2ccc(N3CCC[C@@H](C(=O)N4CCCC4)C3)nc2[nH]1 [Example 211, (R)-5-(3-(Pyrrolidine-1-carbonyl)piperidin-1-yl)-N-(6-(trifluoromethyl)pyridin-3-yl)-3H-imidazo[4,5-b]pyridine-2-carboxamide], which IC50 is on record?
**A.** 845 nM

**Q.** With O=C([C@@H]1CCCN(c2ccc3nc(-c4cccc(N5CCC5)n4)[nH]c3n2)C1)N1CCCC1 [Example 120, (R)-(1-(2-(6-(Azetidin-1-yl)pyridin-2-yl)-3H-imidazo[4,5-b]pyridin-5-yl)piperidin-3-yl)(pyrrolidin-1-yl)methanone] as the molecule, how does the IC50 read?
**A.** 21.5 nM

**Q.** For O=C([C@@H]1CCCN(c2ccc3nc(-c4ccnc(C5CC5)n4)[nH]c3n2)C1)N1CCC[C@@H]1CO [Example 66, ((R)-1-(2-(2-Cyclopropylpyrimidin-4-yl)-3H-imidazo[4,5-b]pyridin-5-yl)piperidin-3-yl)((R)-2-(hydroxymethyl)pyrrolidin-1-yl)methanone], which IC50 is on record?
**A.** 1050 nM

**Q.** For Cc1ccn(C2(c3nc4ccc(N5CCC[C@@H](C(=O)N6CCCC6)C5)nc4[nH]3)CC2)n1 [Example 89, (R)-(1-(2-(1-(3-Methyl-1H-pyrazol-1-yl)cyclopropyl)-3H-imidazo[4,5-b]pyridin-5-yl)piperidin-3-yl)(pyrrolidin-1-yl)methanone], which IC50 is on record?
**A.** 546 nM

**Q.** Which IC50 does the source give for C[C@@H]1CCCN1C(=O)[C@@H]1CCCN(c2ccc3nc(C4(n5cc(Cl)cn5)CC4)[nH]c3n2)C1 [Example 201, ((R)-1-(2-(1-(4-Chloro-1H-pyrazol-1-yl)cyclopropyl)-3H-imidazo[4,5-b]pyridin-5-yl)piperidin-3-yl)((R)-2-methylpyrrolidin-1-yl)methanone] here?
**A.** 91 nM

**Q.** Which IC50 does the source give for O=C([C@@H]1CCCN(c2ccc3nc(-c4ccnc(C5CCC5)n4)[nH]c3n2)C1)N1CCCC1 [Example 147, (R)-(1-(2-(2-Cyclobutylpyrimidin-4-yl)-3H-imidazo[4,5-b]pyridin-5-yl)piperidin-3-yl)(pyrrolidin-1-yl)methanone] here?
**A.** 9.21 nM

Same assay, conditions: read-out: DGAT2 IC50

**Q.** For C[C@@H]1CC[C@H](C(=O)N2CCCC2)CN1c1ccc2nc(C3(n4cc(Cl)cn4)CC3)[nH]c2n1 [Example 217, ((3S,6R)-1-(2-(1-(4-chloro-1H-pyrazol-1-yl)cyclopropyl)-3H-imidazo[4,5-b]pyridin-5-yl)-6-methylpiperidin-3-yl)(pyrrolidin-1-yl)methanone], which IC50 is on record?
**A.** 131 nM
